Measurements as given in article PMC9106929 (Circulation research, 2022).

Target: Piezo1 (Mus musculus, UniProt E2JF22)
Test: cell-attached single-channel patch clamp, open probability
Format: cell-based
Conditions: activator, 5 μM in pipette, -50 mV; effect absent in Piezo1-EC-KO cECs

Piezo1, sequence (E2JF22 whole entry): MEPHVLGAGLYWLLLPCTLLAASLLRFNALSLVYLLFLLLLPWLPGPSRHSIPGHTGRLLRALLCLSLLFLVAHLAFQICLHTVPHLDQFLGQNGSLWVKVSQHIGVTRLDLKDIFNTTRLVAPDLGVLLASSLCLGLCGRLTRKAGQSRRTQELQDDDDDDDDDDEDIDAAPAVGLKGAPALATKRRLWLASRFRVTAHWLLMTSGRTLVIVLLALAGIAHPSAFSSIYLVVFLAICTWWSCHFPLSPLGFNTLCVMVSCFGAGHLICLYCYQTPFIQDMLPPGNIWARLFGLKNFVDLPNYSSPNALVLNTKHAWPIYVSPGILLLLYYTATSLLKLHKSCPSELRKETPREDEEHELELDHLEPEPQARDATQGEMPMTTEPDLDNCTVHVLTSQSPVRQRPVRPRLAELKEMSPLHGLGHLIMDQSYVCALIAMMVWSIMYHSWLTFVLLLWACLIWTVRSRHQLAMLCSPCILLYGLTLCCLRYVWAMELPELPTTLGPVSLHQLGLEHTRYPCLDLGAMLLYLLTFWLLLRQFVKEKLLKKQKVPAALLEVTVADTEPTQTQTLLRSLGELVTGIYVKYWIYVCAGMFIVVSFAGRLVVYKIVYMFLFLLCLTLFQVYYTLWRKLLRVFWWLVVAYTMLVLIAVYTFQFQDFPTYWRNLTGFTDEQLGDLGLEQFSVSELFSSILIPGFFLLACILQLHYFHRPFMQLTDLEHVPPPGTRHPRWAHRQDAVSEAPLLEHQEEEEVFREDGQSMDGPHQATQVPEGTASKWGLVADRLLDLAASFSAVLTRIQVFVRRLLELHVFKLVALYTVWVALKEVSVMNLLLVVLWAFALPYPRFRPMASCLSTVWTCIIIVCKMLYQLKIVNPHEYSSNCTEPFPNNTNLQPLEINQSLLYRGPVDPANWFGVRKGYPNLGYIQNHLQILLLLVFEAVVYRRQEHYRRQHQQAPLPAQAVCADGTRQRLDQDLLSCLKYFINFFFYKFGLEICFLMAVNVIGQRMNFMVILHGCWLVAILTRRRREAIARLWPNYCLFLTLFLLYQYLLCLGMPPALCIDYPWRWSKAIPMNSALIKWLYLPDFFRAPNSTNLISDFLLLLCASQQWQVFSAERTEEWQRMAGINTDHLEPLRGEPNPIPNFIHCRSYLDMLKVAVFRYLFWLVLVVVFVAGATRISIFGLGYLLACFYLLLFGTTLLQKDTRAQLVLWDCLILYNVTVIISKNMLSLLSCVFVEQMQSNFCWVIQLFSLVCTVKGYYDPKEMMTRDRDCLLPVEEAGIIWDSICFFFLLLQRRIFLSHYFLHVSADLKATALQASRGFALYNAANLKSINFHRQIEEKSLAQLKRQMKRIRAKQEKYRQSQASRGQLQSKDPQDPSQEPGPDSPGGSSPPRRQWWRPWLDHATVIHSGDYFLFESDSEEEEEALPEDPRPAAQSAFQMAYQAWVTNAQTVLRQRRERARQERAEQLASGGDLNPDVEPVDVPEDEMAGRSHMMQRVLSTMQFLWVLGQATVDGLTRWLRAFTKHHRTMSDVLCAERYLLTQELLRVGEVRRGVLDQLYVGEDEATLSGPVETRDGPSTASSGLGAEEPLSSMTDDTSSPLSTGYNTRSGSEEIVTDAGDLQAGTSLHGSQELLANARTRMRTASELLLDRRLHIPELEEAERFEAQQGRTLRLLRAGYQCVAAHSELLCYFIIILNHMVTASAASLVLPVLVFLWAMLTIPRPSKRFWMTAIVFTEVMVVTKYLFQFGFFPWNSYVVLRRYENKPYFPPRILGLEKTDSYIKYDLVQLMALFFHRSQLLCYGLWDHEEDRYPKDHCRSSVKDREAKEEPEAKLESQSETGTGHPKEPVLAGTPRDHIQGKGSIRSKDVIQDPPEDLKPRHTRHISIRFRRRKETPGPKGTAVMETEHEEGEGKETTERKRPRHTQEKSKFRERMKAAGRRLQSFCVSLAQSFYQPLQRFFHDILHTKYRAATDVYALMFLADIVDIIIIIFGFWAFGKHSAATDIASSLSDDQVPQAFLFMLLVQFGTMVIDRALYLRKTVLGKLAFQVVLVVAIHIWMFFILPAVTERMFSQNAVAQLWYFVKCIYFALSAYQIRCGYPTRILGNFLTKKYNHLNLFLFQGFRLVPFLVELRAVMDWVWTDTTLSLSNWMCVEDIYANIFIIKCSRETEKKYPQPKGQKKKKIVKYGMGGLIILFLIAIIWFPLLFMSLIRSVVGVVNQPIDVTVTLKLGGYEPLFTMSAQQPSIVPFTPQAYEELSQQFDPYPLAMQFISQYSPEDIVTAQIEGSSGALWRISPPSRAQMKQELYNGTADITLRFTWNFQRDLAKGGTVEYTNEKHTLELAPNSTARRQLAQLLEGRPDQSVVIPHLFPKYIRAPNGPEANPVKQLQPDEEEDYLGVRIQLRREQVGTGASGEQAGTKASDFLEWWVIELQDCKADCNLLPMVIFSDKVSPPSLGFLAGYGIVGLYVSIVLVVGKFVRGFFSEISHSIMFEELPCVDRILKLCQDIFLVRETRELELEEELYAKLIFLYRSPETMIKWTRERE

With `Clc1cccc(Cl)c1CSc1nnc(-c2cnccn2)s1` [Yoda1] the “cell-attached single-channel patch clamp, open probability” value was “increased the open probability of Piezo1-like currents in Piezo1-EC-Ctrl cECs but not in Piezo1-EC-KO”.
